Test results reported in patent US8673910B2, “Proteasome inhibitors for selectively inducing apoptosis in cancer cells” (H. Lee Moffitt Cancer Center and Research Institute, priority 2008, dated 2014).
Several values for one entry are separate records, joined by “and”; a condition that tells them apart may be missing. Equal values may be shown once.

Test system: primary multiple myeloma cells isolated from patients' bone marrow
Test: Cell death of primary multiple myeloma cells (Trypan blue)
Type: cell-based, human
Conditions: read-out: Cell death 24 h (IC50 values); primary MM cells, 24 h treatment; Table 5: one value per patient; mean over patients
Procedure: MM patients' bone marrow samples were collected from Liquid Tissue Bank facility. Freshly isolated bone marrow samples were fractionated by Ficoll-Paque (Pharmacia Biotech, Piscataway, N.J.) sedimentation. The mononuclear cellular layer was then resuspended in RPMI-1640 containing 10% heat-inactivated fetal bovine serum, 10 mM HEPES (pH 7.4), sodium pyruvate, L-glutamine, and 1% penicillin-streptomycin.
Adherent cells were harvested using trypsinization and pooled with suspension cells from media supernatant by pelleting at 300 g for 5 min at 4° C. The cells were then resuspended in an appropriate volume of media by pipetting gently up and down. Two 20 μl aliquots were removed and combined with an equal volume of 0.4% Trypan blue and allowed to mix for 1 minute. A 10 μl volume was loaded onto a hemacytometer and cells were scored as live or dead based on Trypan blue dye exclusion and the percentage of dead cell number to total cell number was calculated. To calculate the percentage of proliferation, the number of live cells in the treated samples was divided by the number of live cells in the untreated vehicle control.

**Q.** With O=C1C(Cl)=C(Nc2ccc(S(=O)(=O)Nc3ccccn3)cc2)C(=O)c2ccccc21 [PI-083, 4-(3-chloro-1,4-dioxo-1,4-dihydronaphthalen-2-ylamino)-N-(pyridin-2-yl)benzenesulfonamide] as the compound, how does the IC50 read?
**A.** 6.2 µM and 2.7 µM and 1.1 µM and 2.4 µM and 1.7 µM and 4.1 µM and 9 µM and 7.3 µM and 3.2 µM
